Results reported in ChEMBL document CHEMBL4725331, “An investigative study of antitumor properties of a novel thiazolo[4,5-d]pyrimidine small molecule revealing superior antitumor activity with CDK1 selectivity and potent pro-apoptotic properties” (Bioorg Med Chem, 2020).
pIC50: −log10 of the molar value.

Legend:
WI-38 = assay: Cytotoxicity against human WI-38 cells assessed as reduction in cell viability after 48 hrs by MTT assay; assay type: cell-based; details: WI-38, 48 h
HCT-116 = assay: Cytotoxicity against human HCT-116 cells assessed as reduction in cell viability after 48 hrs by MTT assay; assay type: functional, cell-based; details: HCT-116, 48 h
HOP-92 = assay: Antiproliferative activity against human HOP-92 cells assessed as inhibition of cell growth measured after 48 hrs by SRB assay; assay type: functional
IGROV-1 = assay: Antiproliferative activity against human IGROV-1 cells assessed as inhibition of cell growth measured after 48 hrs by SRB assay; assay type: functional

## CC[C@H](CO)Nc1nc(NCc2ccccc2)c2ncn(C(C)C)c2n1 [SELICICLIB]
WI-38
  pIC50: 4.62
HCT-116
  pIC50: 4.81

## COc1ccc(-n2c(=S)sc3c(=O)[nH]c(C)nc32)c(OC)c1
HOP-92
  GI50: < 10 nM
IGROV-1
  GI50: 180 nM
